Measured values published in patent US20260115190A1, “DISPERSIONS OF ETRUMADENANT” (Arcus Biosciences, Inc., priority 2022, published 2026).
Like-named read-outs stand apart in the source and are kept apart here.

Assay: Drug-drug interaction study with itraconazole
Format: in vivo, humans
Details: for CL/F / Kel / Vd/F / half-life: arithmetic mean ± SD; for AUC % ex / AUC from 0 to 24 h (AUC0-24) / AUC(0-t) / AUC(0-inf) / Cmax: geometric mean; for AUC from 0 to 24 h (AUC0-24) / AUC(0-t) / Vd/F / half-life / AUC(0-inf) / Cmax / Tmax: both sexes, human, plasma, oral; for Vd/F: read-out: Vz/F; for half-life: read-out: t½ (converted); for Tmax: median
Method: An open-label, fixed-sequence, 2-period drug-drug interaction (DDI) study was designed to evaluate the effect of multiple doses of a strong inhibitor of CYP3A4 and P-gp on the single-dose PK of etrumadenant in humans. Etrumadenant was supplied as 25 mg capsules. Itraconazole was used as the representative strong inhibitor of CYP3A4 and P-gp. It was supplied as 10 mg/mL oral solution, Sporanox® by Janssen Pharmaceuticals (or generic equivalent). Twenty (20) healthy, adult male and female (of non-childbearing potential) participants were enrolled. Screening of participants occurred within 28 days prior to the first dosing.
On Day 1 of Period 1, a single 150 mg dose of etrumadenant was orally administered under fasting conditions (i.e., at least 10 hours of fasting prior to dosing and at least 4 hours postdose). PK sampling for etrumadenant and its metabolites was taken predose and up to 120 hours postdose. There was a washout of 5 days between the etrumadenant dose in Period 1 and the first itraconazole dose in Period 2.
In Period 2, 200 mg itraconazole was orally administered twice a day (BID) on Day 1 and once a day (QD) for 9 consecutive days (on Days 2 through 10) with a single 150 mg dose of etrumadenant orally administered 1 hour after itraconazole dosing on Day 6. Itraconazole was administered under fasting conditions. On Day 6, participants fasted for at least 10 hours prior to and at least 4 hours post etrumadenant dosing. PK sampling for etrumadenant and its metabolites was taken predose and up to 120 hours after etrumadenant dosing. PK sampling for itraconazole and 1-hydroxy-itraconazole was collected on Days 5, 6, 7, 9, and 11.
Itraconazole was administered twice on the first day of Period 2 as a loading dose to accelerate CYP3A inhibition and the inhibition was then maintained by administering itraconazole 200 mg QD for 9 consecutive days. A 200 mg BID dose level is expected to provide similar inhibition to a 400 mg QD dose. Although itraconazole reaches steady state within approximately 15 days, it has been established that QD administration of 200 mg itraconazole for 3 to 5 days allows maximum CYP3A inhibition sufficient to detect a DDI. […] As such, administration of itraconazole for at least 4 days is considered sufficient in DDI studies as a CYP3A4 and P-gp inhibitor. To maintain the level of inhibition, itraconazole was administered throughout PK sampling of etrumadenant (i.e., through Day 10 of Period 2). In addition, the itraconazole oral solution was administered under fasting conditions to maximize bioavailability.
Participants were housed on Day −1 of Period 1, at the time indicated by the clinical research unit (CRU), until after the 120-hour blood draw and completion of study procedures in Period 2. Safety was monitored throughout the study by repeated clinical and laboratory evaluations. In this study, there were no discontinued participants. All participants who received at least one dose of study drug (including participants who terminated the study early) were asked to return to the CRU approximately 14 days after the last dose for follow-up procedures, and to determine if any adverse event (AE) had occurred since the last study visit. All adverse events reported in the study were mild and resolved without treatment.

[1] = Etrumadenant 150 mg + Itraconazole
[2] = multiple doses of itraconazole compared to etrumadenant given alone

- CL/F [1]: 2.52 ± 0.842 L/h
- Kel [1]: 0.0255 ± 0.00605 h⁻¹
- AUC % ex [1]: 4.39%
- CL/F (Etrumadenant Alone, 150 mg): 4.00 ± 1.12 L/h
- Kel (Etrumadenant Alone, 150 mg): 0.0249 ± 0.00663 h⁻¹
- AUC % ex (Etrumadenant Alone, 150 mg): 3.90%
- AUC from 0 to 24 h (AUC0-24) (150 mg, Etrumadenant Alone, 150 mg (6 × 25 mg capsules), fasting): 21600 ng·h/mL
- AUC(0-t) (150 mg, Etrumadenant Alone): 36500 ng·h/mL
- AUC from 0 to 24 h (AUC0-24) (Etrumadenant 150 mg + Itraconazole 200 mg multiple doses): 30700 ng·h/mL
- Vd/F [1]: 100 ± 28.3 L
- half-life [1]: 28.7 ± 7.01 h
- AUC(0-inf) [1]: 62600 ng·h/mL
- AUC(0-t) [1]: 59400 ng·h/mL
- Cmax [1]: 3530 ng/mL
- Tmax [1]: 1.52 h
- Vd/F (Etrumadenant Alone, 150 mg): 172 ± 64.8 L
- half-life (Etrumadenant Alone, 150 mg): 29.9 ± 8.88 h
- AUC(0-inf) (Etrumadenant Alone, 150 mg): 38600 ng·h/mL
- Cmax (Etrumadenant Alone, 150 mg): 3000 ng/mL
- Tmax (Etrumadenant Alone, 150 mg): 1.38 h
- increase in etrumadenant AUCinf [2]: ~62%
- increase in etrumadenant AUClast [2]: approximately 63%
- increase in etrumadenant Cmax [2]: ~18%
Structure (SMILES): Cc1c(C#N)cccc1-c1cc(-c2cn(Cc3cccc(C(C)(C)O)n3)nn2)nc(N)n1 [Etrumadenant, 3-[2-amino-6-(1-{[6-(2-hydroxypropan-2-yl)pyridine-2-yl]methyl}-1H-1,2,3-triazol-4-yl)pyrimidin-4-yl]-2-methylbenzonitrile]
